Legend:
Details in all cases: 72 h
[1] = tested on: HepG2; experiment: drug sensitivity score (DSS) for viability; higher = more toxic; extreme values may be limits of the assay
[2] = tested on: Caco-2; experiment: as above
[3] = tested on: U2OS; experiment: as above
[4] = tested on: Calu-3; experiment: as above
[5] = tested on: Vero E6; experiment: as above
[6] = tested on: HepG2; experiment: cell viability relative to DMSO; higher = less toxic
[7] = tested on: Caco-2; experiment: as above
[8] = tested on: U2OS; experiment: as above
[9] = tested on: Calu-3; experiment: as above
[10] = tested on: Vero E6; experiment: as above
[11] = tested on: HepG2; experiment: relative viability EC50 (midpoint between 100% and the lowest measured viability); higher = less toxic
[12] = tested on: Caco-2; experiment: as above
[13] = tested on: U2OS; experiment: as above
[14] = tested on: Calu-3; experiment: as above
[15] = tested on: Vero E6; experiment: as above

| SMILES | drug sensitivity score [1] | drug sensitivity score [2] | drug sensitivity score [3] | drug sensitivity score [4] | drug sensitivity score [5] | cell viability ([6]; 1 nM) [%] | cell viability ([6]; 10 nM) [%] | cell viability ([6]; 100 nM) [%] | cell viability ([6]; 1000 nM) [%] | cell viability ([6]; 10000 nM) [%] | cell viability ([7]; 1 nM) [%] | cell viability ([7]; 10 nM) [%] | cell viability ([7]; 100 nM) [%] | cell viability ([7]; 1000 nM) [%] | cell viability ([7]; 10000 nM) [%] | cell viability ([8]; 1 nM) [%] | cell viability ([8]; 10 nM) [%] | cell viability ([8]; 100 nM) [%] | cell viability ([8]; 1000 nM) [%] | cell viability ([8]; 10000 nM) [%] | cell viability ([9]; 1 nM) [%] | cell viability ([9]; 10 nM) [%] | cell viability ([9]; 100 nM) [%] | cell viability ([9]; 1000 nM) [%] | cell viability ([9]; 10000 nM) [%] | cell viability ([10]; 1 nM) [%] | cell viability ([10]; 10 nM) [%] | cell viability ([10]; 100 nM) [%] | cell viability ([10]; 1000 nM) [%] | cell viability ([10]; 10000 nM) [%] | relative viability EC50 [11] [µM] | relative viability EC50 [12] [µM] | relative viability EC50 [13] [µM] | relative viability EC50 [14] [µM] | relative viability EC50 [15] [µM] |
| --- | --- | --- | --- | --- | --- | --- | --- | --- | --- | --- | --- | --- | --- | --- | --- | --- | --- | --- | --- | --- | --- | --- | --- | --- | --- | --- | --- | --- | --- | --- | --- | --- | --- | --- | --- |
| Nc1nc(NC2CC2)cc(-c2cccc(Cl)c2Cl)n1 [TH-588] | 0 | 0 | 0 | 0 | 0 | 95.4 | 97.1 | 102 | 101 | 95.4 | 92.1 | 91.1 | 96.4 | 93.7 | 96.8 | 96.3 | 99.2 | 105 | 97.9 | 98.6 | 95.5 | 94 | 101 | 104 | 98.5 | 100 | 104 | 98.1 | 101 | 89.6 | > 10 | > 10 | > 10 | > 10 | > 10 |
| CC(C)(C)C(=O)OCOP(=O)(COCCn1cnc2c(N)ncnc21)OCOC(=O)C(C)(C)C [adefovir-dipivoxil] | 10.1 | 1.9 | 0.8 | 3.5 | 0 | 106 | 93.8 | 101 | 49.1 | 25.2 | 93.7 | 87.6 | 87.5 | 95.4 | 75.6 | 96.2 | 101 | 97.8 | 102 | 75.5 | 92.9 | 97.6 | 106 | 95.5 | 47.6 | 101 | 106 | 107 | 99.7 | 89.3 | 0.741 | > 10 | > 10 | 2.46 | > 10 |
| CC(=O)[C@H]1CC[C@H]2[C@@H]3CC[C@H]4C[C@H](O)CC[C@]4(C)[C@H]3C(=O)C[C@]12C [alfaxalone] | 0 | 0 | 0 | 0 | 0 | 98.6 | 102 | 94.1 | 96.1 | 106 | 101 | 101 | 89.6 | 103 | 104 | 97.8 | 99.2 | 97.7 | 103 | 102 | 94.7 | 99.9 | 87.7 | 97.4 | 101 | 99.6 | 95.9 | 99.7 | 94.3 | 107 | > 10 | > 10 | > 10 | > 10 | > 10 |
| COc1cc(F)c(C(C)C)cc1-c1ccc(C(F)(F)F)cc1CN1C(=O)O[C@H](c2cc(C(F)(F)F)cc(C(F)(F)F)c2)[C@@H]1C [anacetrapib] | 0 | 0 | 0 | 0 | 0 | 108 | 103 | 98.2 | 92.6 | 98.8 | 98.1 | 90.8 | 100 | 96.1 | 93.8 | 96.6 | 100 | 101 | 99.8 | 97.7 | 97.7 | 97 | 108 | 93.6 | 102 | 108 | 107 | 97.6 | 102 | 93.2 | > 10 | > 10 | > 10 | > 10 | > 10 |
| CN(C)C(=N)NCCC[C@H](N)C(=O)O [asymmetrical-dimethylarginine] | 0 | 0 | 0 | 0 | 0 | 86.7 | 96.8 | 95.1 | 105 | 101 | 101 | 99.4 | 97.9 | 93.3 | 101 | 100 | 93.2 | 96.2 | 93.5 | 97 | 107 | 99.9 | 112 | 102 | 97.9 | 97.4 | 101 | 96.5 | 101 | 90.7 | > 10 | > 10 | > 10 | > 10 | > 10 |
| CNCC[C@@H](Oc1ccccc1C)c1ccccc1 [atomoxetine] | 0 | 0 | 0 | 1.2 | 0 | 87.3 | 98.5 | 100 | 104 | 93.5 | 99 | 96.8 | 98.3 | 97.8 | 92.8 | 106 | 97.5 | 101 | 94.8 | 101 | 106 | 104 | 98.7 | 86 | 96.3 | 106 | 106 | 102 | 106 | 99.1 | > 10 | > 10 | > 10 | > 10 | > 10 |
| CN1[C@@H]2CC[C@H]1C[C@@H](OC(=O)c1cc(Cl)cc(Cl)c1)C2 [bemesetron] | 0 | 1 | 0 | 0 | 0 | 98.7 | 101 | 91.3 | 107 | 106 | 104 | 97.8 | 103 | 94.9 | 82.2 | 98.7 | 96.7 | 101 | 98.7 | 99.7 | 86.5 | 87.7 | 94.5 | 94 | 95 | 98.2 | 103 | 95.8 | 99.5 | 104 | > 10 | > 10 | > 10 | > 10 | > 10 |
| O=C(Oc1cccc2cccnc12)c1ccccc1 [benzoxiquine] | 5.1 | 0 | 0 | 0 | 0 | 104 | 103 | 102 | 102 | 7 | 102 | 99.6 | 102 | 99.2 | 98.1 | 99.7 | 92.3 | 96.3 | 92.4 | 98.6 | 106 | 94.3 | 95.6 | 96 | 93.7 | 98.5 | 101 | 99.5 | 98.3 | 93.8 | 3.26 | > 10 | > 10 | > 10 | > 10 |
| COc1cc2c(cc1OC)[C@@]13CCN4CC5=CCO[C@H]6CC(=O)N2[C@H]1[C@H]6[C@H]5C[C@H]43 [brucine] | 2.6 | 0 | 0 | 0 | 0 | 109 | 103 | 90.2 | 83.6 | 96.9 | 104 | 89.9 | 112 | 106 | 91.7 | 96.8 | 101 | 101 | 96.5 | 96.9 | 110 | 101 | 91.4 | 98 | 97.1 | 106 | 92.3 | 95.2 | 99 | 98.9 | > 10 | > 10 | > 10 | > 10 | > 10 |
| CCCC(=O)Nc1ncnc2c1ncn2[C@@H]1O[C@@H]2COP(=O)(O)O[C@H]2[C@H]1OC(=O)CCC [bucladesine] | 0 | 0 | 0 | 0 | 0 | 101 | 101 | 93.9 | 99 | 96 | 110 | 101 | 107 | 93.3 | 91.9 | 105 | 94.8 | 103 | 97.2 | 100 | 100 | 92.9 | 92.9 | 94.3 | 108 | 98.5 | 104 | 97.8 | 104 | 95.2 | > 10 | > 10 | > 10 | > 10 | > 10 |
| CCCC[N+]1(C)[C@@H]2C[C@@H](OC(=O)[C@H](CO)c3ccccc3)C[C@H]1[C@@H]1O[C@@H]12 (stereo not given in full) [butylscopolamine-bromide] | 0 | 0 | 0 | 0 | 0 | 102 | 106 | 92.9 | 102 | 115 | 92.8 | 98.3 | 104 | 94.7 | 98.2 | 99.1 | 94.7 | 101 | 96.3 | 99.7 | 110 | 83.9 | 99.5 | 90.9 | 106 | 97.4 | 95.9 | 96.5 | 95.6 | 108 | > 10 | > 10 | > 10 | > 10 | > 10 |
| NC(=O)N1c2ccccc2C=Cc2ccccc21 [carbamazepine] | 0 | 0 | 0 | 0 | 0 | 107 | 110 | 88.9 | 98.6 | 101 | 104 | 96.9 | 98.5 | 97.2 | 102 | 101 | 97.2 | 101 | 96.4 | 104 | 91.2 | 91.9 | 90.3 | 98.4 | 98.9 | 106 | 98.4 | 98.8 | 95.1 | 95.7 | > 10 | > 10 | > 10 | > 10 | > 10 |
| CCOC(=O)n1ccn(C)c1=S [carbimazole] | 0 | 0 | 0 | 0 | 0 | 94.7 | 99.8 | 93.3 | 90.6 | 103 | 98 | 98.7 | 100 | 104 | 100 | 99.5 | 91 | 94.4 | 101 | 103 | 92.4 | 95.4 | 101 | 104 | 107 | 90.9 | 89.5 | 91.2 | 93.7 | 108 | > 10 | > 10 | > 10 | > 10 | > 10 |
| CC(C)(C(=O)O)c1ccc(C(=O)CCCN2CCC(OC(c3ccccc3)c3ccccc3)CC2)cc1 [carebastine] | 0 | 0 | 0 | 0 | 0 | 107 | 97.7 | 94.3 | 108 | 92.9 | 101 | 101 | 107 | 92.2 | 96.6 | 95.7 | 99.2 | 99.4 | 93.2 | 99.3 | 89.7 | 88.6 | 110 | 100 | 102 | 111 | 106 | 95.3 | 104 | 106 | > 10 | > 10 | > 10 | > 10 | > 10 |

Source: the supplement of paper PMC13380429
